One experiment addresses T1, COX-2 (Homo sapiens, UniProt P35354).
T1 construct: gene PTGS2; homodimer
T1 sequence (P35354 18-604): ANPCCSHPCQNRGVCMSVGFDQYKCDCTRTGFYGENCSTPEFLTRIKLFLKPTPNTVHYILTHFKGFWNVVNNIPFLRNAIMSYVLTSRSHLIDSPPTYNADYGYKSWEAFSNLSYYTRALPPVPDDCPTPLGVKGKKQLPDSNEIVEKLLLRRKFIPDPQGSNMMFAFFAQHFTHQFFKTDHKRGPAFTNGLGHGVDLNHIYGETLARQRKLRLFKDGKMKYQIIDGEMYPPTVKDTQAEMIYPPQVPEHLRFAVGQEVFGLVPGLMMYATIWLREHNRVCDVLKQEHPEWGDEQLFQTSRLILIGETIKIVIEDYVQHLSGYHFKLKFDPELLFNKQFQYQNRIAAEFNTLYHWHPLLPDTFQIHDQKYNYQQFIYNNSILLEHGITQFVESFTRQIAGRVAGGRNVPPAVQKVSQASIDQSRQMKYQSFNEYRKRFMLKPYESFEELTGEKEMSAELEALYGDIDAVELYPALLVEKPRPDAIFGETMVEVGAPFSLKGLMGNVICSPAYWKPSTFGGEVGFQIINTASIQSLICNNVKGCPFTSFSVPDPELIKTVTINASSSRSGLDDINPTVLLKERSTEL
Nature of the experiment: colorimetric COX peroxidase inhibitor screening kit, […] nm. The class given is biochemical. Particulars: tested at 100 µM only, 2 min, RT; unreliable.

Another experiment has as its target T2, COX-1 (Ovis aries, UniProt P05979).
T2 construct: gene PTGS1; homodimer
T2 sequence (P05979 25-600): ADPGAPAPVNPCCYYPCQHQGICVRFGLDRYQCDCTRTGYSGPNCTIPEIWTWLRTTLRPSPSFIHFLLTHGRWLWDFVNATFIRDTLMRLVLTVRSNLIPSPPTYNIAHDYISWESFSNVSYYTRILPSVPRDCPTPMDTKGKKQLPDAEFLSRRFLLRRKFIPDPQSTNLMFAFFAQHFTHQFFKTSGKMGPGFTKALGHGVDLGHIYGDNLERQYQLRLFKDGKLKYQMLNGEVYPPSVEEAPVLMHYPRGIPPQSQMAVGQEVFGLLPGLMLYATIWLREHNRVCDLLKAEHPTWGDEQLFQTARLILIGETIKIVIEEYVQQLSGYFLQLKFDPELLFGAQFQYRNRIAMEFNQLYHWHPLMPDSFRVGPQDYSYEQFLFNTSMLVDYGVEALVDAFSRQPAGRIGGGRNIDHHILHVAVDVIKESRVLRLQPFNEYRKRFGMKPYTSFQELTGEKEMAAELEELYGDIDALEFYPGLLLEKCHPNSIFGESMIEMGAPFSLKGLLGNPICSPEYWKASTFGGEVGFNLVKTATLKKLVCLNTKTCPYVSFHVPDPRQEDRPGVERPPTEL
Described as above. The class given is biochemical. The following applies: tested at 100 µM only, 2 min, RT; unreliable.

These results are taken from PMC7866801, “Design and Synthesis of N-Substituted 3,4-Pyrroledicarboximides as Potential Anti-Inflammatory Agents” (International Journal of Molecular Sciences, 2021).

For `Cc1c2c(c(C)n1-c1ccccc1)C(=O)N(CN1CCN(c3ccc(Br)cc3)CC1)C2=O` [2a, 4,6-dimethyl-5-phenyl-2{[4-(p-bromophenyl)-1-piperazinyl]methyl}pyrrolo[3,4-c]pyrrole-1,3(2H,5H)-dione], the “Cyclooxygenase Inhibition Assay IC50 [μM] / COX-2” value on COX-2 came out at 60.85 ± 0.02 µM. For the same compound, the “Cyclooxygenase Inhibition Assay IC50 [μM] / COX-1” value on COX-1 was determined as 87.90 ± 0.03 µM.
For `Cc1c2c(c(C)n1-c1ccccc1Cl)C(=O)N(CN1CCN(c3ccc(Br)cc3)CC1)C2=O` [2b, 4,6-dimethyl-5-(o-chlorophenyl)-2-{[4-(p-bromophenyl)-1-piperazinyl]methyl}pyrrolo[3,4-c]pyrrole-1,3(2H,5H)-dione] the same measures were 61.46 ± 0.02 µM and 94.17 ± 0.04 µM.
Taken in the same sequence, the figures for `Cc1c2c(c(C)n1-c1ccccc1)C(=O)N(CN1CCN(c3ccccc3C#N)CC1)C2=O` [2c, 4,6-dimethyl-5-phenyl-2{[4-(o-cyanophenyl)-1-piperazinyl]methyl}pyrrolo[3,4-c]pyrrole-1,3(2H,5H)-dione] were 61.53 ± 0.09 µM and 94.56 ± 0.02 µM.
For `Cc1c2c(c(C)n1-c1ccccc1)C(=O)N(CN1CCN(c3cccc(C(F)(F)F)c3)CC1)C2=O` [2d, 4,6-dimethyl-5-phenyl-2{[4-(m-trifluoromethylphenyl)-1-piperazinyl]methyl}pyrrolo[3,4-c]pyrrole-1,3(2H,5H)-dione] the same measures were 60.24 ± 0.03 µM and 77.46 ± 0.06 µM.
Take `CCCCn1c(C)c2c(c1C)C(=O)N(CN1CCN(c3ccc(C)cc3)CC1)C2=O` [2e, 4,6-dimethyl-5-n-butyl-2-{[4-(p-methylphenyl)-1-piperazinyl]methyl}pyrrolo[3,4-c]pyrrole-1,3-(2H,5H)-dione]: the “Cyclooxygenase Inhibition Assay IC50 [μM] / COX-2” value at COX-2 came out at 60.75 ± 0.02 µM. The “Cyclooxygenase Inhibition Assay IC50 [μM] / COX-1” value on COX-1 is recorded as 78.73 ± 0.06 µM.
Taken in the same sequence, the figures for `CCCCn1c(C)c2c(c1C)C(=O)N(CN1CCN(c3ncccn3)CC1)C2=O` [2f, 4,6-dimethyl-5-n-butyl-2-{[4-(2-pyrimidinyl)piperazin-1-yl]methyl}pyrrolo[3,4-c]pyrrole-1,3(2H,5H)-dione] were 58.87 ± 0.08 µM and 80.51 ± 0.06 µM.
As to `Cc1c2c(c(C)n1-c1ccccc1)C(=O)N(CN1CCN(C3CCCCC3)CC1)C2=O` [2g, 4,6-dimethyl-5-phenyl-2-[(4-cyclohexyl-1-piperazinyl)methyl]pyrrolo[3,4-c]pyrrole-1,3(2H,5H)-dione], the “Cyclooxygenase Inhibition Assay IC50 [μM] / COX-2” value at COX-2 stood at 59.92 ± 0.05 µM. Moreover, at COX-1, the “Cyclooxygenase Inhibition Assay IC50 [μM] / COX-1” value was 80.25 ± 0.06 µM.
Turning to `Cc1c2c(c(C)n1-c1ccccc1Cl)C(=O)N(CN1CCN(C3CCCCC3)CC1)C2=O` [2h, 4,6-dimethyl-5-(o-chlorophenyl)-2-[(4-cyclohexyl-1-piperazinyl)methyl]pyrrolo[3,4-c]pyrrole-1,3(2H,5H)-dione], at COX-2, the “Cyclooxygenase Inhibition Assay IC50 [μM] / COX-2” value is reported as 59.37 ± 0.05 µM. For the same compound, the “Cyclooxygenase Inhibition Assay IC50 [μM] / COX-1” value at COX-1 is on record as 76.54 ± 0.06 µM.
For `CCCCn1c(C)c2c(c1C)C(=O)N(CN1CCN(C3CCCCC3)CC1)C2=O` [2i, 4,6-dimethyl-5-n-butyl-2-[(4-cyclohexyl-1-piperazinyl)methyl]pyrrolo[3,4-c]pyrrole-1,3(2H,5H)-dione] the same measures were 60.96 ± 0.04 µM and 79.87 ± 0.07 µM.
For `CCCCn1c(C)c2c(c1C)C(=O)N(CN1CCN(CCO)CC1)C2=O` [2j, 4,6-dimethyl-5-n-butyl-2-{[4-hydroxyethyl-1-piperazinyl]methyl}pyrrolo[3,4-c]pyrrole-1,3(2H,5H)-dione] the same measures were 59.77 ± 0.11 µM and 84.90 ± 0.05 µM.
Taken in the same sequence, the figures for `Cc1c2c(c(C)n1-c1ccccc1)C(=O)N(CN1CCNCC1)C2=O` [2k, 4,6-dimethyl-5-phenyl-2-[(piperazinyl)methyl]pyrrolo[3,4-c]pyrrole-1,3(2H,5H)-dione] were 58.43 ± 0.06 µM and 83.47 ± 0.05 µM.
For the compound `Cc1c2c(c(C)n1-c1ccccc1)C(=O)N(CN1CCOCC1)C2=O` [2l, 4,6-dimethyl-5-phenyl-2-[(morpholinyl)methyl]pyrrolo[3,4-c]pyrrole-1,3(2H,5H)-dione], the “Cyclooxygenase Inhibition Assay IC50 [μM] / COX-2” value on COX-2 was 59.33 ± 0.09 µM. For the same compound, at COX-1, the “Cyclooxygenase Inhibition Assay IC50 [μM] / COX-1” value is recorded as 82.72 ± 0.04 µM.
Taken in the same sequence, the figures for `CCCCn1c(C)c2c(c1C)C(=O)N(CN1CCC(c3ccccc3)CC1)C2=O` [2m, 4,6-dimethyl-5-n-butyl-2-[(4-phenyl-1-piperidinyl)methyl]pyrrolo[3,4-c]pyrrole-1,3(2H,5H)-dione] were 60.39 ± 0.02 µM and 88.15 ± 0.02 µM.
Turning to `CCCCn1c(C)c2c(c1C)C(=O)N(CN1CCC(O)(c3ccc(Br)cc3)CC1)C2=O` [2n, 4,6-dimethyl-5-n-butyl-2-{[4-(p-bromophenyl)-4-hydroxypiperidin-1-yl]methyl}pyrrolo[3,4-c]pyrrole-1,3(2H,5H)-dione], at COX-2, the “Cyclooxygenase Inhibition Assay IC50 [μM] / COX-2” value was 57.65 ± 0.04 µM. Also, the “Cyclooxygenase Inhibition Assay IC50 [μM] / COX-1” value at COX-1 is given as 77.59 ± 0.09 µM.
Taken in the same sequence, the figures for `CCCCn1c(C)c2c(c1C)C(=O)N(CN1CCC(O)(c3ccc(Cl)cc3)CC1)C2=O` [2o, 4,6-dimethyl-5-n-butyl-2-{[4-(p-chlorophenyl)-4-hydroxypiperidin-1-yl]methyl}pyrrolo[3,4-c]pyrrole-1,3(2H,5H)-dione] were 58.38 ± 0.16 µM and 78.25 ± 0.10 µM.
Take `CCCCn1c(C)c2c(c1C)C(=O)N(CN1CCC(O)(Cc3ccccc3)CC1)C2=O` [2p, 4,6-dimethyl-5-n-butyl-2-{[4-benzyl-4-hydroxypiperidin-1-yl]methyl}pyrrolo[3,4-c]pyrrole-1,3(2H,5H)-dione]: the “Cyclooxygenase Inhibition Assay IC50 [μM] / COX-2” value at COX-2 was found to be 59.37 ± 0.07 µM. Moreover, the “Cyclooxygenase Inhibition Assay IC50 [μM] / COX-1” value at COX-1 came to 82.94 ± 0.04 µM.
